According to ChEMBL document CHEMBL1146186, “Synthesis and biological evaluation of type VI beta-turn templated RGD peptidomimetics” (Bioorg Med Chem Lett, 2006):

Assays:
[1] = molecular target: Integrin alpha-V/beta-5 (Homo sapiens) (UniProt P06756+P18084); test: Inhibition of alpha-V-beta-5 receptor; type: protein-complex assay
[2] = molecular target: Integrin alpha-V/beta-3 (Homo sapiens) (UniProt P05106+P06756); test: Inhibition of alpha-V-beta-3 receptor; type: protein-complex assay

Activity [1] [µM] | Activity [2] [µM] | Structure (SMILES)
0.538 | 0.159 | N=C(N)NCCC[C@@H]1NC(=O)[C@H]2C/C=C\C[C@H](NC(=O)[C@H](CC(=O)O)NC(=O)CNC1=O)C(=O)N2
> 5 | 0.615 | N=C(N)NCCC[C@@H]1NC(=O)[C@@H]2CCCC[C@@H](NC(=O)[C@H](CC(=O)O)NC(=O)CNC1=O)C(=O)N2
> 5 | 0.925 | N=C(N)NCCC[C@@H]1NC(=O)[C@@H]2C/C=C\C[C@@H](NC(=O)[C@H](CC(=O)O)NC(=O)CNC1=O)C(=O)N2
> 5 | 0.28 | N=C(N)NCCC[C@@H]1NC(=O)[C@H]2CCCC[C@H](NC(=O)[C@H](CC(=O)O)NC(=O)CNC1=O)C(=O)N2
